Experimental data from patent US11884673B2, “Modulators of ion channel receptors and uses thereof” (BIONOMICS LIMITED, priority 2018, dated 2024).

What follows are compounds tested against T1, hNav1.7 (Homo sapiens, UniProt Q15858) (assay: hNav1.7 inactivated state (SIS) automated patch clamp electrophysiology (Patchliner, whole-cell)). Conditions: Assay Conc. 10 uM; inactivated state protocol; hNav1.7 stably expressed in human embryonic kidney cells; read-out: hNav1.7 SIS (% inh).
T1 construct: expressed in transfected cells
Assay type: cell-based
Experimental: hNav1.7, hNav1.2, hNav1.3, hNav1.4, hNav1.5, hNav1.6 were stably expressed in human embryonic kidney cells and kept under constant antibiotic selection. For in vitro assays, cells were maintained in appropriate growth medium at 37° C. and 5% CO2 in a humidified incubator.
Nav1.x expressing cells plated in T-25 flasks for 2-3 days prior to use and grown to 70-85% confluence were briefly trypsinized to obtain a single cell suspension of ˜2-3×10^6 cells/ml. All electrophysiological recordings were performed at ambient temperature (21-23° C.) using automated patch clamp (Patchliner, Nanion Technologies GmbH) in the whole-cell configuration using the following solutions: Internal solution contained (in mM): CsCl (50), NaCl (10), CsF (60), EGTA (20), HEPES (10), pH 7.2 KOH, 285 mOsmol·Kg^−1. External (bath) solution contained (in mM): NaCl (140), KCl (4), MgCl2 (1), CaCl2) (2) D-Glucose monohydrate (5), HEPES (10), pH 7.4 NaOH, 298 mOsmol·kg^−1.
The following voltage protocols were used to assess different Nav1.x channel states:
For each Nav1.x channel, a steady state inactivation curve was obtained in order to calculate the voltage resulting in 50% channel inactivation (V0.5inact). A 2 pulse protocol was then employed in which cells held at a voltage corresponding to 20 mV more negative to V0.5 inact were depolarised to −10 mV for 20 ms before returning to the previous holding voltage. This test pulse constituted P1 and represents 100% available (non-inactivated) Nav1.x channels. The same cell was then depolarised for 8 s to a voltage corresponding to 7 mV more positive than V0.5inact in order to cause channel inactivation. Following a brief (2 ms) hyperpolarising voltage step to −120 mV (to reset the activation gate), cells were again subjected to a depolarising test pulse (P2) to −10 mV for 20 ms before returning to the holding potential. Each sequence was repeated 6× at 30 s intervals. Using this protocol, control P2 current amplitudes (representing the % channels available following 8 s inactivation) was ˜50% of control P1 current amplitude. 6 repetitions of this recording sequence were made in the control bath solution and then again 2 minutes after compound addition and thereafter at increasing compound concentrations. % inhibition was calculated by (1−(P2drug at repetition 6/P2control at repetition 6))*100. Data were either presented as % block by a single concentration of drug or an estimated eIC50 determined from 2-3 drug concentrations which was determined by fitting data with a sigmoidal dose response curve (variable slope) using GraphPad Prism software (Version 6.0).
All compounds were dissolved in DMSO to 20 mM initially. Subsequent dilutions in DMSO were made to achieve 200× final bath concentrations. DMSO compound stocks were finally diluted 1/200 in bath solution just prior to assay resulting in a final DMSO concentration of 0.5% which was not found to affect control current amplitude.

T1 sequence (Q15858 whole entry): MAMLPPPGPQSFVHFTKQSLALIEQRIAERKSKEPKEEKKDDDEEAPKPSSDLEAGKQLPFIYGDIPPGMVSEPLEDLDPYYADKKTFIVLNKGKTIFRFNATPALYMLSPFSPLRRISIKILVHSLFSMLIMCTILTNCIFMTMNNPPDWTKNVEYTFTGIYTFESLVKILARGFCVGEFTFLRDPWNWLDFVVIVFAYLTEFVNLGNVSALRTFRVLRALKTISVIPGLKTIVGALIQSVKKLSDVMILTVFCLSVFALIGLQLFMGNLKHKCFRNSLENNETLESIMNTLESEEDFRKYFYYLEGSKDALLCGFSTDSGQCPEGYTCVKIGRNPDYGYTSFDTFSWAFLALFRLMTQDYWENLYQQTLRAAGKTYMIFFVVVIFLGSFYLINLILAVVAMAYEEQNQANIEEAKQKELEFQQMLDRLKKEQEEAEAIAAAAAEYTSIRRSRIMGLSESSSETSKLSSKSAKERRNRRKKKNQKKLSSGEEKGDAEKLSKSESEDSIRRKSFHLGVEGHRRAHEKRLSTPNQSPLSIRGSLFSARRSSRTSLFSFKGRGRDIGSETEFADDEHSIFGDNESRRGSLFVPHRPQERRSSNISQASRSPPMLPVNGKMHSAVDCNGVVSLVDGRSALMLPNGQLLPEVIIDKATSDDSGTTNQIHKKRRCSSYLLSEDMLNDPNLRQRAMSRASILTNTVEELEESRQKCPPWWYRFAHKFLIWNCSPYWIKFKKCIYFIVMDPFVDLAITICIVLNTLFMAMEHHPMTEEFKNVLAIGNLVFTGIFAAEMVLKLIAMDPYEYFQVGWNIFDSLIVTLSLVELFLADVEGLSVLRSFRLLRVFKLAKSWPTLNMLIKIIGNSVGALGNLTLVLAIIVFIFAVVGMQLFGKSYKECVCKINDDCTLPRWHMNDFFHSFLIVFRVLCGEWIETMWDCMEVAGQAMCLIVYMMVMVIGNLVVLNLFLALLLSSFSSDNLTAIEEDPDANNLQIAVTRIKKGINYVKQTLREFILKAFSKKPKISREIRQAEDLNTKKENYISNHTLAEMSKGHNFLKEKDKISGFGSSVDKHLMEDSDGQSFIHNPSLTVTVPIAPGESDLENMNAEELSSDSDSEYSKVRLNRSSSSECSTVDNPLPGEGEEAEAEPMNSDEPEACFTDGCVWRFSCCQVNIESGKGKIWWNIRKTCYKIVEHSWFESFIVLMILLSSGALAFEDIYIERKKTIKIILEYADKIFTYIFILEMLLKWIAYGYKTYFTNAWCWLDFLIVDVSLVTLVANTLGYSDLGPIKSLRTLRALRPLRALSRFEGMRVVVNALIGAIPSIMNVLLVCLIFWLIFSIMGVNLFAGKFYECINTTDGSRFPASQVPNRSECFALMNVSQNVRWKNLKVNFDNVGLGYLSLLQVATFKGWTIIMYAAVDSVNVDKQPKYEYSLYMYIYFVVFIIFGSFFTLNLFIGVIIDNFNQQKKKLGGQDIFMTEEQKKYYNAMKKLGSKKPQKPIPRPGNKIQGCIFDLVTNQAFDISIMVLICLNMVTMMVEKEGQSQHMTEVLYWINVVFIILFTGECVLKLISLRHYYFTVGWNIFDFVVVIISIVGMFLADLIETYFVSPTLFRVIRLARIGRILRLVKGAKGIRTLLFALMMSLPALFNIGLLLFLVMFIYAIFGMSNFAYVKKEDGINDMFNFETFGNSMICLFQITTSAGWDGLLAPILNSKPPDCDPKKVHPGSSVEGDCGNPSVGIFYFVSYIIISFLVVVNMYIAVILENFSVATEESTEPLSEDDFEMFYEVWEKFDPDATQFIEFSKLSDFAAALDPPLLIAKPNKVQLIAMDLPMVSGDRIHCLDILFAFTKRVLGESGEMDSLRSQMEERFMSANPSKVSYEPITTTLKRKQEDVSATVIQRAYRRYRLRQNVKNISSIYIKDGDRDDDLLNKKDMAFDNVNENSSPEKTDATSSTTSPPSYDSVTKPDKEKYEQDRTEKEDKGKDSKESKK

inhibition at 10 µM [%]	Compound
52	Cn1cccc(C(=O)NCc2cc(OCc3ccccc3F)ccc2F)c1=O [Number 58]
50	O=C(NCc1cccc(OCc2ccccc2F)c1)c1cn2ncccc2n1 [Number 62]
49	O=C(NCc1cccc(OCc2ccccc2F)c1)c1ccc2nncn2c1 [Number 88]
53	Cn1cccc(C(=O)NCc2cccc(OCc3ccccc3F)c2)c1=O [Number 57]
66	Cc1cn2ccc(C(=O)NCc3cccc(OCc4ccccc4F)c3)cc2n1 [Number 71]
48	O=C(NCc1cccc(OCc2ccccc2F)c1)c1cccc2ncnn12 [Number 64]
99	O=C(NCc1cc(OCc2ccccc2F)ccc1F)c1cccn2ccnc12 [Number 89]
74	COC[C@@H](C)N(Cc1cccc(OCc2ccccc2F)c1)C(=O)c1cn2ccccc2n1 [Number 53]
88	O=C(NCc1cc(OCc2ccccc2F)ccc1F)c1cccn2nnnc12 [Number 81]
58	O=C(NCc1cc(OCc2ccccc2F)ccc1F)c1ccn2cnnc2c1 [Number 74]
83	CC(C)(Oc1cccc(CNC(=O)c2cccn3ccnc23)c1)c1ccccc1F [Number 52]
92	O=C(NCc1cccc(OCc2ccccc2F)c1)c1cccn2cncc12 [Number 86]
49	O=C(NCc1cccc(OCc2ccccc2F)c1)c1cccc2cncn12 [Number 60]
30	Cn1ccc(C(=O)NCc2cccc(OCc3ccccc3F)c2)cc1=O [Number 66]
42	O=C(NCc1cccc(OCc2ccccc2F)c1)c1cccn2nnnc12 [Number 79]
92	O=C(NCc1cccc(OCc2ccccc2F)c1)c1cc2cccn2cn1 [Number 69]
36	CC(C)(Oc1cccc(CNC(=O)c2cccn3cnnc23)c1)c1ccccc1F [Number 51]
66	O=C(NCc1cccc(OCc2ccccc2F)c1)c1ccn2cnnc2c1 [Number 70]
55	COC[C@H](C)N(Cc1cccc(OCc2ccccc2F)c1)C(=O)c1cn2ccccc2n1 [Number 54]
38	O=C(NCc1cc(OCc2ccccc2F)ccc1F)c1cccc2nncn12 [Number 49]

inhibition at 10 µM [%]	Compound
100	O=C(NCc1cc(OCc2ccccc2F)ccc1F)c1nccn2ccnc12 [Number 48]
70	O=C(NCc1cccc(OCc2ccccc2F)c1)c1cccn2ncnc12 [Number 77]
53	O=C(NCc1cc(OCc2ccccc2F)ccc1F)c1cn2ncccc2n1 [Number 68]
42	O=C(NCc1cc(OCc2ccccc2F)ccc1F)c1ccn2ncnc2c1 [Number 82]
83	O=C(NCc1cc(OCc2ccccc2F)ccc1F)c1cccn2ncnc12 [Number 78]
44	O=C(Cc1cn2ccccc2n1)NCc1cccc(OCc2ccccc2F)c1 [Number 76]
42	O=C(NCc1cc(OCc2ccccc2F)ccc1F)c1cn2cccnc2n1 [Number 59]
55	O=C(NCc1cc(OCc2ccccc2F)ccc1F)c1ccc2cncn2c1 [Number 85]
42	O=C(NCc1cccc(OCc2ccccc2F)c1)c1cn2cccnc2n1 [Number 63]
47	O=C(NCc1cccc(OCc2ccccc2F)c1)c1cnc2ccccn12 [Number 73]
30	O=C(NCc1cccc(OCc2ccccc2F)c1)c1ccn2ncnc2c1 [Number 80]
66	O=C(NCc1cc(OCc2ccccc2F)ccc1F)c1cccn2cncc12 [Number 87]
100	Cc1cn2ccc(C(=O)NCc3cc(OCc4ccccc4F)ccc3F)cc2n1 [Number 72]
49	Cn1ccc(C(=O)NCc2cc(OCc3ccccc3F)ccc2F)cc1=O [Number 55]
80	O=C(NCc1cccc(OCc2ccccc2F)c1)c1cccc2ccnn12 [Number 50]
45	CC(C)(NC(=O)c1ccn2ccnc2c1)c1cccc(OCc2ccccc2F)c1 [Number 11]
74	Cn1cc(CC(=O)NCc2cccc(OCc3ccccc3F)c2)c2ccccc21 [Number 75]
59	Cc1cnc2cc(C(=O)NCc3cccc(OCc4ccccc4F)c3)ccn12 [Number 83]
34	O=C(NCc1cccc(OCc2ccccc2F)c1)c1cn2ccncc2n1 [Number 67]
45	O=C(NCc1cccc(OCc2ccccc2F)c1)c1ccc2cncn2c1 [Number 84]

Same assay, conditions: estimated eIC50 from 2-3 drug concentrations; inactivated state protocol; hNav1.7 stably expressed in human embryonic kidney cells

IC50 [µM]	Compound
2.7	O=C(NCc1cccc(OCc2ccccc2F)c1)c1cccn2ccnc12 [Number 3]
0.13	O=C(NCc1cc(OCC2CCCCC2)ccc1F)c1cccn2cnnc12 [Number 6]
0.91	O=C(NCc1cccc(OCC2CCCCC2)c1)c1cccn2cnnc12 [Number 8]
8.9	O=C(NCc1cccc(OCc2ccccc2F)c1)c1ccn2ccnc2c1 [Number 9]
1.3	O=C(NCc1cc(OCc2ccccc2F)ccc1F)c1ccn2ccnc2c1 [Number 5]
1.3	O=C(NCc1cccc(OCc2ccccc2F)c1)c1nccn2ccnc12 [Number 2]
0.51	CC(C)(NC(=O)c1ccn2ccnc2c1)c1cccc(OCC2CCCCC2)c1 [Number 12]
2.2	O=C(NCc1cc(OCc2ccccc2F)ccc1F)c1cn2ccccc2n1 [Number 56]
1.1	O=C(NCc1cc(OCc2ccccc2F)ccc1F)c1cccn2cnnc12 [Number 4]
10	O=C(NCc1cc(OCc2ccccc2F)ccc1F)c1cccc2ncnn12 [Number 65]
4.8	CC(C)(NC(=O)c1cccn2cnnc12)c1cccc(OCC2CCCCC2)c1 [Number 7]
1.6	CN(Cc1cccc(OCc2ccccc2F)c1)C(=O)c1cn2ccccc2n1 [Number 61]
0.41	O=C(NCc1cc(OCC2CCCCC2)ccc1F)c1ccn2ccnc2c1 [Number 1]
3.3	O=C(NCc1cccc(OCc2ccccc2F)c1)c1cccn2cnnc12 [Number 10]
